ChEMBL document CHEMBL1155737, “Antillatoxin B, a neurotoxic lipopeptide from the marine cyanobacterium Lyngbya majuscula” (J Nat Prod, 2001)

Legend:
[1] = Activation of voltage-sensitive sodium channel in mouse neuro2a cells; type: cell-based; conditions: N2a
[2] = Ichthyotoxicity in Carassius auratus; type: organism-based; conditions: in vivo

Structure (SMILES) | EC50 [1] | LC50 [2]
C=C1CC(=O)N[C@@H](C)C(=O)N(C)[C@@H](CCc2ccccc2)C(=O)NCC(=O)O[C@@H](/C(C)=C/C(C)=C/C(C)(C)C)[C@@H]1C [ANTILLATOXIN B] | 1.77 µM | 1 µM
C=C1CC(=O)N[C@@H](C)C(=O)N(C)[C@@H](C(C)C)C(=O)NCC(=O)O[C@@H](/C(C)=C/C(C)=C/C(C)(C)C)[C@@H]1C [ANTILLATOXIN] | 0.18 µM | –
